In patent US7598072B2 (priority 2003, dated 2009):
Like-named read-outs stand apart in the source and are kept apart here.

Legend:
[1] = test system: ASLV-A vector RCASBP(A)-EGFP; assay type: biochemical, avian sarcoma and leukosis virus
[2] = test system: HIV [EnvA] pseudotyped virus; test: HIV [EnvA] cell-free fusion/uncoating reaction, HIV-1 early DNA by real-time PCR; assay type: biochemical; settings: 4.5 mM, 200 μg 293 S10 fraction, 6 hour incubation
[3] = test system: ASLV; assay type: cell-based, avian sarcoma and leukosis virus; settings: 3 mM NH4Cl, data not shown
[4] = test system: ASLV; settings: 30 mM or higher concentrations of NH4Cl; cited from earlier work

apyrase
effect on amount of ASLV early DNA products ([1]; 10 units/ml apyrase added 30 minutes or later after initiating the cell-free reaction): little or no effect
effect on amount of ASLV early DNA products ([1]; 10 units/ml apyrase, 150 μg 293 S10 fraction): reduced

Nc1ncnc2c1ncn2[C@@H]1O[C@H](CO[P@](=O)(O)O[P@](=O)(O)O[P@@](=O)(O)S)[C@@H](O)[C@H]1O [adenosine 5′-[γ-thio]triphosphate]
effect on stimulation of HIV-1 early DNA synthesis in the cell-free system [2]: markedly reduced
effect on stimulation of ASLV early DNA synthesis in the cell-free system ([1]; 2.5 mM, 150 μg 293 S10 fraction, 6 hour incubation): markedly reduced

Cl.N [NH4Cl, ammonium chloride]
ASLV fusion and entry into cells [3]: unaffected
ASLV fusion and entry into cells [4]: effectively blocked
